The supplement of paper PMC10657565
± gives the uncertainty stated by the source.

Legend:
Experiment in all cases: relative cell viability vs DMSO control (% of DMSO control); higher = less growth inhibition (higher viability)
Details in all cases: treatment time: 72 h
BT-474 = system: BT-474
Description: (§1)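 Breast cancer cell lines (BT-474, HCC1806, SUM-159, SKBR-3) were seeded in triplicate in 96-well plates and treated 24 h after seeding with kinase inhibitors at 8 doses (3 nM to 30 uM). After 72 h, viability was read by CellTiter-Glo luminescence. Values were averaged over replicates and normalised to DMSO-only (0.1%) controls on each plate to give relative viability (% of DMSO).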

HCC1806 = system: HCC1806
Description: as §1

SKBR3 = system: SKBR3
Description: as §1

SUM159 = system: SUM159
Description: as §1

| SMILES | relative cell viability (BT-474; 0.003 µM) | relative cell viability (BT-474; 0.01 µM) | relative cell viability (BT-474; 0.03 µM) | relative cell viability (BT-474; 0.1 µM) | relative cell viability (BT-474; 0.3 µM) | relative cell viability (BT-474; 1 µM) | relative cell viability (BT-474; 3 µM) | relative cell viability (BT-474; 30 µM) | relative cell viability (HCC1806; 0.003 µM) | relative cell viability (HCC1806; 0.01 µM) | relative cell viability (HCC1806; 0.03 µM) | relative cell viability (HCC1806; 0.1 µM) | relative cell viability (HCC1806; 0.3 µM) | relative cell viability (HCC1806; 1 µM) | relative cell viability (HCC1806; 3 µM) | relative cell viability (HCC1806; 30 µM) | relative cell viability (SKBR3; 0.003 µM) | relative cell viability (SKBR3; 0.01 µM) | relative cell viability (SKBR3; 0.03 µM) | relative cell viability (SKBR3; 0.1 µM) | relative cell viability (SKBR3; 0.3 µM) | relative cell viability (SKBR3; 1 µM) | relative cell viability (SKBR3; 3 µM) | relative cell viability (SKBR3; 30 µM) | relative cell viability (SUM159; 0.003 µM) | relative cell viability (SUM159; 0.01 µM) | relative cell viability (SUM159; 0.03 µM) | relative cell viability (SUM159; 0.1 µM) | relative cell viability (SUM159; 0.3 µM) | relative cell viability (SUM159; 1 µM) | relative cell viability (SUM159; 3 µM) | relative cell viability (SUM159; 30 µM) |
| --- | --- | --- | --- | --- | --- | --- | --- | --- | --- | --- | --- | --- | --- | --- | --- | --- | --- | --- | --- | --- | --- | --- | --- | --- | --- | --- | --- | --- | --- | --- | --- | --- |
| COCCN1CCN(Cc2ccc(-c3n[nH]c4c3C(=O)c3c(NC(=O)NN5CCOCC5)cccc3-4)cc2)CC1 | 97.7 ± 4.1 | 86 ± 3.1 | 66.7 ± 7 | 64.5 ± 6.1 | 69.8 ± 8.4 | 70.8 ± 15 | 75.2 ± 7.9 | 11.2 ± 0.36 | 96.5 ± 1.7 | 83.3 ± 2.7 | 42.8 ± 16 | 11.7 ± 1.4 | 9.5 ± 1.1 | 9.2 ± 0.52 | 9.82 ± 0.46 | 2.82 ± 1.3 | 84.2 ± 3.5 | 71 ± 7.2 | 50 ± 7 | 18.1 ± 8.7 | 8.06 ± 0.7 | 7.43 ± 0.26 | 5.73 ± 0.075 | 0.827 ± 0.17 | 97.1 ± 6.1 | 60.4 ± 30 | 14.3 ± 16 | 7.11 ± 1 | 8.54 ± 0.38 | 9.97 ± 0.5 | 7.7 ± 0.38 | 0.538 ± 0.063 |
| COC(=O)[C@@]1(O)C[C@H]2O[C@]1(C)n1c3ccccc3c3c4c(c5c6ccccc6n2c5c31)C(=O)NC4 [K-252a] | 113 ± 7.6 | 106 ± 6.3 | 99.6 ± 7.7 | 91.6 ± 6.8 | 81.3 ± 4.5 | 58.9 ± 7.6 | 21.3 ± 4.6 | 1.44 ± 0.18 | 91.4 ± 5.5 | 81.8 ± 5.3 | 75.8 ± 6.2 | 62.3 ± 13 | 26.1 ± 8.3 | 13 ± 1.5 | 5.96 ± 2.1 | 0.762 ± 0.15 | 92.4 ± 4.2 | 90.4 ± 2 | 87.8 ± 4.2 | 81.8 ± 3.8 | 69.2 ± 4.8 | 54.3 ± 1.9 | 40 ± 2.8 | 1.88 ± 0.54 | 68.7 ± 6.9 | 63.8 ± 1.2 | 72.2 ± 3 | 34.7 ± 9.7 | 12.9 ± 2.6 | 6.47 ± 1.4 | 4.82 ± 0.85 | 2.12 ± 0.57 |
| CC(C)c1cc(CNc2nc(Nc3cc(C4CC4)[nH]n3)cc(N3CCN(C)CC3)n2)on1 [XL-228] | – | – | – | – | – | – | – | – | – | – | – | – | – | – | – | – | 103 ± 1.4 | 101 ± 2.3 | 101 ± 7.3 | 100 ± 6.3 | 115 ± 6.3 | 117 ± 3.9 | 52.2 ± 6.2 | 6.72 ± 0.86 | 74.7 ± 5.2 | 61.4 ± 1.7 | 54.32 ± 0.48 | 36.5 ± 1.4 | 26.8 ± 1.6 | 11 ± 0.61 | 6.45 ± 0.28 | 10.8 ± 0.58 |
